Assay results taken from patent publication US20240368134A1, “AROMATIC COMPOUND, PHARMACEUTICAL COMPOSITION, AND APPLICATION THEREOF” (SHANGHAI KYGENT PHARMACEUTICAL CO., LTD, priority 2021, published 2024).
Like-named read-outs stand apart in the source and are kept apart here.

How the values were obtained:
MSTO-211H cells = test: Tumor cell proliferation inhibition experiment (Cell Titer Glo), MSTO-211H; assay type: cell-based; conditions: MSTO-211H lung cancer cells, three days incubation
Protocol: (§1) Cell Titer Glo luminescent cell viability assay kit was used to quantify the ATP content in cells, so as to quantify the number of viable cells. […] On the second day, the compound was added to the 96-well plate after a three-fold serial dilution to eight concentrations, and incubated at 37° C. for three days in the 5% carbon dioxide incubator. The culture medium was treated with the addition of Cell Titer Glo luminescent cell viability assay kit (Promega G7570) reagent, incubated for 10 minutes, and then placed in Envision (Pelkin Elmer) to read the luminescence signal. DMSO was used instead of the compound as a control to calculate the inhibition rate (inhibition rate %=(1−compound signal/DMSO signal)*100), and then standard four parameter curve fitting was used to calculate the inhibitory activity IC50.

NCI-H2052 cells = test: Tumor cell proliferation inhibition experiment (Cell Titer Glo), NCI-H2052; assay type: cell-based; conditions: NCI-H2052 lung cancer cells, three days incubation
Protocol: as §1

[1] = Pharmacokinetic evaluation experiment in mice (IV and PO); assay type: in vivo; conditions: male ICR mice; for Vd: read-out: Vss
Protocol: 120 healthy adult male ICR mice were selected and divided into 20 groups according to the principle of similar body weight, with 6 mice in each group of IV (10 groups) and 6 mice in each group of PO (10 groups). An appropriate amount of sample was weighed, sequentially added with an appropriate amount of DMA, Solutol, and Saline according to the volume ratio of 10:10:80, and stirred and sonicated to achieve a clarification of 1 mg/mL. After overnight fasting, mice in the IV group were intravenously administered with a volume of 5 mL/kg and a dose of 5 mg/kg, respectively; and mice in the PO group were intragastrically administered with a volume of 30 mL/kg and a dose of 30 mg/kg, respectively. Interleaved sampling was performed on every 6 mice after administration of the test compound. In the IV group, approximately 30 μL of blood was collected at 0.0833, 0.25, 0.5, 1, 2, 4, 6, 8, and 24 hours, and placed in a commercial anticoagulant tube pre-filled with EDTA-K2. In the PO group, approximately 30 μL of blood was collected at 0.25, 0.5, 1, 2, 4, 6, 8, and 24 hours, and placed in the commercial anticoagulant tube pre-filled with EDTA-K2. The tubes were centrifuged for 15 minutes to separate the plasma, and the plasma was stored at −80° C. Animals were allowed to eat 2 hours after administration. The content of the test compound in the plasma of mice after intravenous and intragastric administration was determined by LC/MS/MS method. The linear range of the method was 1.00 to 1000 ng/mL: plasma samples were analyzed after protein precipitation.

[2] = mouse, plasma, PO 30 mg/kg vs IV 5 mg/kg
[3] = mouse, IV 5 mg/kg, plasma, read-out: AUC
[4] = mouse, PO 30 mg/kg, plasma, read-out: AUC
[5] = mouse, PO 30 mg/kg, plasma, read-out: Cmax
[6] = mouse, PO 30 mg/kg, plasma, read-out: Tmax

Row | Compound | IC50 (MSTO-211H cells; Homo sapiens, 72 h) | IC50 (NCI-H2052 cells; Homo sapiens, 72 h) | bioavailability [1, 2] | clearance ([1]; mouse, IV 5 mg/kg, plasma) | half-life ([1]; mouse, IV 5 mg/kg, plasma) | AUC [1, 3] | Vd ([1]; mouse, IV 5 mg/kg, plasma) | AUC [1, 4] | Cmax [1, 5] | Tmax [1, 6] | further results
1 | CNC(=O)c1cc2c(c(F)c1-c1c(Cl)c(F)cc3c1C[C@](c1ccccc1)([C@@H]1CCCN1)O3)C1CC1O2 (stereo partly drawn) [Compound 2a] | 414 nM | 928 nM | 95.4% | 86.3 mL/min/kg | 3.82 h | 750 ng·h/mL | 28 L/kg | 4300 ng·h/mL | 474 ng/mL | 4 h | –
2 | NC(=O)c1cc2c(c(F)c1-c1c(Cl)c(F)cc3c1C[C@](c1ccccc1)([C@@H]1CCCN1)O3)CCC2O (stereo partly drawn) [Compound 53a] | 150 nM | 160 nM | 14.4% | 44.2 mL/min/kg | 4.18 h | 1880 ng·h/mL | 6.94 L/kg | 1620 ng·h/mL | 301 ng/mL | 0.5 h | –
3 | CNC(=O)c1cc2c(c(F)c1-c1c(Cl)c(F)cc3c1C[C@](c1ccccc1)([C@@H]1CC4(CC4)CN1)O3)OC1CC21 (stereo partly drawn) [Compound 18a] | 690 nM | 730 nM | 27.9% | 107 mL/min/kg | 1.59 h | 804 ng·h/mL | 12.2 L/kg | 1680 ng·h/mL | 199 ng/mL | 0.8 h | –
4 | CNC(=O)c1cc2c(c(F)c1-c1c(Cl)c(F)cc3c1C[C@](c1ccccc1)([C@@H]1CCCN1)O3)CCC2O (stereo partly drawn) [Compound 41a] | 190 nM | 420 nM | 61.8% | 36.5 mL/min/kg | 2.19 h | 2280 ng·h/mL | 5.32 L/kg | 8460 ng·h/mL | 1270 ng/mL | 2 h | –
5 | CNC(=O)c1cc2c(c(F)c1-c1c(Cl)c(F)cc3c1C[C@](c1ccccc1)([C@@H]1CC4(CC4)CN1)O3)C1CC1O2 (stereo partly drawn) [Compound 16a] | 1730 nM | 1850 nM | 40.3% | 56.4 mL/min/kg | 2.28 h | 1480 ng·h/mL | 11.4 L/kg | 3570 ng·h/mL | 434 ng/mL | 2 h | –
6 | CNC(=O)c1cc2c(c(F)c1-c1c(Cl)c(F)cc3c1C[C@](c1ccccc1)([C@@H]1CCCN1)O3)OC1CC21 (stereo partly drawn) [Compound 17a] | 80 nM | 90 nM | 52.2% | 75.8 mL/min/kg | 1.79 h | 1100 ng·h/mL | 11.7 L/kg | 3450 ng·h/mL | 424 ng/mL | 1.33 h | –
7 | CNC(=O)c1cnc(OCCO)c(F)c1-c1c(Cl)c(F)cc2c1C[C@](c1ccccc1)([C@@H]1CC3(CC3)CN1)O2 [Compound 10a] | 236 nM | 328 nM | 17.3% | 50.4 mL/min/kg | 1.11 h | 1650 ng·h/mL | 2.42 L/kg | 1710 ng·h/mL | 603 ng/mL | 0.5 h | –
8 | CNC(=O)c1cc2c(c(F)c1-c1c(Cl)c(F)cc3c1C[C@@](CN[C@H]1CC[C@](C)(O)CC1)(c1ccccc1)O3)OC1CC21 (stereo partly drawn) [Compound 22a] | 50 nM | 90 nM | – | – | – | – | – | – | – | – | –
9 | CNC(=O)c1cc2c(c(F)c1-c1c(Cl)c(F)cc3c1C[C@@](CN[C@H]1CC[C@H](O)CC1)(c1ccccc1)O3)C1CC1O2 (stereo partly drawn) [Compound 13a] | 200 nM | 210 nM | 108% | 41.4 mL/min/kg | 2.23 h | 2010 ng·h/mL | 8.5 L/kg | 13100 ng·h/mL | 2050 ng/mL | 2 h | –
10 | CNC(=O)c1cc2c(c(F)c1-c1c(Cl)c(F)cc3c1C[C@](c1ccccc1)([C@@H]1CC4(CC4)CN1)O3)N1CCCC1CO2 (stereo partly drawn) [Compound 15a] | 2880 nM | 2730 nM | – | – | – | – | – | – | – | – | –
11 | CNC(=O)c1cc2c(c(F)c1-c1c(Cl)c(F)cc3c1C[C@](c1ccccc1)([C@@H]1CCCN1)O3)CC1(CC1)C2 [Compound 1a] | 2190 nM | 4750 nM | – | – | – | – | – | – | – | – | –
12 | CNC(=O)c1cc2c(c(F)c1-c1c(Cl)c(F)cc3c1C[C@](c1ccccc1)([C@@H]1CCCN1)O3)CCC2C#N (stereo partly drawn) [Compound 38a] | 990 nM | 750 nM | – | – | – | – | – | – | – | – | –
13 | CNC(=O)c1cnc(OCCO)c(F)c1-c1c(Cl)c(F)cc2c1C[C@](c1ccccc1)([C@@H]1CCC(=O)N1)O2 [Compound 19a] | > 10000 nM | > 10000 nM | – | – | – | – | – | – | – | – | –
14 | CNC(=O)c1cc2c(c(F)c1-c1c(Cl)c(F)cc3c1C[C@](c1ccccc1)([C@@H]1CCCN1)O3)CCC2 [Compound 31a] | 200 nM | 250 nM | 44.6% | 17.9 mL/min/kg | 3.52 h | 2790 ng·h/mL | 4.44 L/kg | 7470 ng·h/mL | 928 ng/mL | 1 h | –
15 | C[C@]1(O)CC[C@H](NC[C@@]2(c3ccccc3)Cc3c(cc(F)c(Cl)c3-c3c(C(N)=O)cc4c(c3F)OC3CC43)O2)CC1 (stereo partly drawn) [Compound 24a] | 20 nM | 40 nM | – | – | – | – | – | – | – | – | –
16 | C[C@H]1c2c(cc(F)c(Cl)c2-c2c(C(N)=O)cc3c(c2F)OC2CC32)O[C@]1(CN[C@H]1CC[C@](C)(O)CC1)c1ccccc1 (stereo partly drawn) [Compound 28a] | 40 nM | 50 nM | – | – | – | – | – | – | – | – | –
17 | CNC(=O)c1cc2c(c(F)c1-c1c(Cl)c(F)cc3c1C[C@@](CN[C@H]1CC[C@](C)(O)CC1)(c1ccccc1)O3)C1CC1O2 (stereo partly drawn) [Compound 14a] | – | – | – | – | – | – | – | – | – | – | IC50 (MSTO-211H cells): 320 nM; IC50 (NCI-H2052 cells): 360 nM; AUC ([1]; IV 5 mg/kg, plasma): 3462 ng·h/mL; CL ([1]; IV 5 mg/kg, plasma): 24.1 mL/min/kg; T1/2 ([1]; IV 5 mg/kg, plasma): 2.35 h; Vss ([1]; IV 5 mg/kg, plasma): 4.34 L/kg; F % ([1]; PO 30 mg/kg vs IV 5 mg/kg): 102.1%; AUC ([1]; PO 30 mg/kg, plasma): 21209 ng·h/mL; Cmax ([1]; PO 30 mg/kg, plasma): 2697 ng/mL; Tmax ([1]; PO 30 mg/kg, plasma): 2.00 h
18 | CNC(=O)c1cnc(OCCO)c(N)c1-c1c(Cl)c(F)cc2c1C[C@](c1ccccc1)([C@@H]1CCCN1)O2 [Compound 8a] | > 10000 nM | > 10000 nM | – | – | – | – | – | – | – | – | –
19 | NC(=O)c1cc2c(c(F)c1-c1c(Cl)c(F)cc3c1C[C@](c1ccccc1)([C@@H]1CCCN1)O3)CCC2 [Compound 52a] | 170 nM | 200 nM | – | – | – | – | – | – | – | – | –
20 | CNC(=O)c1cc2c(c(F)c1-c1c(Cl)c(F)cc3c1C[C@](c1ccccc1)([C@@H]1CCCN1)O3)C[C@H](O)[C@H]2C [Compound 57a1] | – | – | – | – | – | – | – | – | – | – | IC50 (MSTO-211H cells): 390 nM; IC50 (NCI-H2052 cells): 450 nM
21 | CNC(=O)c1cc2c(c(F)c1-c1c(Cl)c(F)cc3c1C[C@](c1ccccc1)([C@@H]1CCCN1)O3)N1C[C@H](O)CC1CO2 (stereo partly drawn) [Compound 4a] | > 10000 nM | 8370 nM | – | – | – | – | – | – | – | – | –
22 | CNC(=O)c1cc2c(c(F)c1-c1c(Cl)c(F)cc3c1[C@H](C)[C@@](CN[C@H]1CC[C@](C)(O)CC1)(c1ccccc1)O3)OC1CC21 (stereo partly drawn) [Compound 26a] | 30 nM | 40 nM | – | – | – | – | – | – | – | – | –
23 | CNC(=O)c1cc2c(c(F)c1-c1c(Cl)c(F)cc3c1C[C@](c1ccccc1)([C@@H]1CCCN1)O3)CCC2S(C)(=O)=O (stereo partly drawn) [Compound 46a] | 640 nM | 930 nM | – | – | – | – | – | – | – | – | –
